Key:
rat jejunum [1] = assay: NO-signal-enhanced drug permeation in rat jejunum in vitro, with NOS inhibitor L-NAME (FIGS. 2-3); format: in vitro ADME; details: 1 mM L-NAME plus NO signal (5 mA, 1 ms, 18 Hz), rat jejunum segments
Excerpt: Reference is made to FIGS. 2 and 3, which are graphs showing in vitro experimental results measured in accordance with an embodiment of the present invention. These experiments assessed the effect of the application of an electrical signal configured to enhance NO-associated drug permeation, which is inhibited by non-specific NOS inhibitor NG-Nitro-L-Arginine methyl ester (L-NAME) in rat jejunum in vitro. The NO-releasing electrical signal (hereinbelow, the “NO signal”) was applied with the following parameters: an amplitude of 5 mA, a pulse width of 1 ms, and a frequency of 18 Hz. In the experiment shown in FIG. 2, 1 mg/ml octreotide was applied to 11 segments of rat jejunum. The NO signal alone was applied to six of the segments, 1 mM L-NAME alone was applied to two of the segments, and the NO signal and 1 mM L-NAME were applied to three of the segments. In the experiment shown in FIG. 3, 1 mg/ml leuprolide was applied to 14 segments of rat jejunum. The NO signal alone was applied to three of the segments, 1 mM L-NAME alone was applied to two of the segments, the NO signal and 1 mM L-NAME were applied to three of the segments, and no treatment was applied to the remaining six segments.

rat jejunum [2] = assay: Octreotide permeation in rat jejunum in vitro: electrical stimulation versus NO donor (FIG. 4); format: in vitro ADME
Procedure: FIG. 4 is a graph showing in vitro experimental results measured in accordance with an embodiment of the present invention. In this experiment, the permeation-enhancing effect of electrical stimulation in rat jejunum in vitro was compared with the effect of an NO donor, molsidomine (SIN-10) (exogenous nitric oxide). The NO signal alone was applied to six segments of rat jejunum, 1 mM SIN-10 alone was applied to four segments, the NO signal and 1 mM SIN-10 were applied to three segments, and no treatment was applied to six segments.

Row | SMILES | effect on NO-signal-enhanced drug permeation (octreotide) (rat jejunum [1]; FIG. 2, 1 mg/ml octreotide) | effect on NO-signal-enhanced drug permeation (leuprolide) (rat jejunum [1]; FIG. 3, 1 mg/ml leuprolide) | rate of octreotide transepithelial transport compared with electrically-induced absorption (rat jejunum [2]; 1 mM SIN-10 alone) | effect of combination with electrical stimulation on enhanced permeation of octreotide, versus electrical stimulation alone (rat jejunum [2]; NO signal plus 1 mM SIN-10)
1 | COC(=O)[C@@H](N)CCCNC(=N)N[N+](=O)[O-] [L-NAME, NG-Nitro-L-Arginine methyl ester] | nearly prevented | nearly prevented |  | 
2 | CCOC(=O)[N-]c1cn(N2CCOCC2)n[o+]1 [SIN-10, molsidomine] |  |  | similar | did not augment

— patent US20060276844A1, “Ingestible device for nitric oxide production in tissue” (priority 2005, published 2006)
